Results as given in patent US20250281516A1, “NUTRACEUTICAL FORMULATION FOR POLYCYSTIC OVARY SYNDROME” (priority 2019, published 2025).

Experiments:
PCOS symptoms = assay: Physician's further feedback in general on PCOS symptom control; set-up: species or system women; settings: in vivo
patients (ovulation) = settings: inositol alone administered; cited from earlier work
infertile PCOS women = settings: inositol and folic acid administered; cited from earlier work

Row | SMILES | effectiveness compared with the combination formulation (PCOS symptoms) | patients showing improvement in ovulation (patients (ovulation)) | restoration of ovulation (infertile PCOS women) | duration of treatment after which most PCOS symptoms were controlled (PCOS symptoms) [month]
1 | O[C@H]1[C@H](O)[C@@H](O)[C@H](O)[C@@H](O)[C@H]1O [inositol] | not as effective | about 62% | about 70% | 
2 | O[C@H]1[C@H](O)[C@@H](O)[C@H](O)[C@@H](O)[C@H]1O [myo-inositol] |  |  |  | > 6
